Legend:
Type in all cases: in vivo, Papaver somniferum
[1] = tested on: poppy crops; assay: Example 16: field trial, metsulfuron-methyl, mesosulfuron-methyl and triasulfuron at row cover and ground cover/early run-up, morphine crop; settings: Trt 5: COMPOUND 2 150 MG/HA + ACTIVATOR .125% V/V at RC and GC/ERU
Protocol: (§1) All trials were conducted on poppy crops. Seed was treated with Thiram (5.6 g of Thiram 800/kg seed) and Apron (4 g/kg) and sown at a rate of approximately 750 g/ha. Fertilisers were applied at sowing. Most commonly, either 50:50 lime:superphosphate/triple superphosphate at 125 kg/ha, or lime:superphosphate at 250 kg/ha, were mixed with seed and drilled at a depth of 15 mm. In the same operation, NPK (nitrogen:phosphorus:potassium), at various rates, was banded 75 mm below the seed, unless otherwise stated. All crops were subjected to herbicide sprays for weed control, fungicide sprays for disease control, insecticide sprays if appropriate and were irrigated as required.
(§2) All spray applications were made with a precision sprayer, using Silvan Lurmark flat-fan, low-drift nozzles (LD110-0015). Spray equipment was calibrated to deliver 153 L water/ha.
(§3) At harvest, a 2 m×4 m quadrat was placed in each plot (3 m×6 m, unless otherwise stated) and capsules hand-picked from this area. Capsules were broken up, seed and capsule material separated and weighed. Capsule moisture readings were taken with a moisture meter. Alkaloid yield data were calculated on Pesticide Research Manager (version 5 for Windows) using the formulae below. Briefly, capsule weight was adjusted for moisture to a dry weight, 5% of seed weight was added to this (this amount of capsule material regularly occurs in seed samples after processing) to give a capsule weight per plot. Seed weight was adjusted to 95% of crude weight. Straw weights were determined by multiplying dry capsule weight by 1.3 (estimated amount of stem material in a commercial harvest) and adjusted to 11% moisture. When Lontrel was applied to crops exact capsule and seed weight data were entered. Analyses of variance and a Multiple Range Test were performed on data using Pesticide Research Manager.
Trial to evaluate applications of metsulfuron-methyl (Compound 1), mesosulfuron-methyl (Compound 2) and triasulfuron (Compound 3), in a morphine crop. Treatment sprays were applied to crop at row cover and ground cover/early run-up, respectively. Plant heights were assessed 5 weeks after last application and lodging was assessed at capsule harvest.

[2] = tested on: poppy crops; assay: Example 17: field trial, triasulfuron, mesosulfuron-methyl and metsulfuron-methyl at early run-up and mid-late run-up, morphine crop; settings: Trt 5: COMPOUND 2 150 MG/HA + ACTIVATOR .125% V/V at ERU and M-LRU
Protocol: as §1, §2, §3
Trial to evaluate applications of triasulfuron, mesosulfuron-methyl and metsulfuron-methyl, in a morphine crop. Treatment sprays were applied to with crop at early run-up and mid-late run-up, respectively. Plant heights were measured on 6 weeks after last application and lodging was assessed at capsule harvest.

[3] = tested on: poppy crops; assay: Example 18: field trial, triasulfuron, mesosulfuron-methyl and metsulfuron-methyl at row cover, mid run-up and early hook, morphine crop; settings: Trt 5: COMPOUND 2 150 MG/HA + ACTIVATOR .125% V/V at RC, MRU and LRU
Protocol: as §1, §2, §3
Trial to evaluate applications of triasulfuron, mesosulfuron-methyl and metsulfuron-methyl, in a morphine crop. […] Plant heights were measured 5 weeks after last application and lodging at capsule harvest.

[4] = tested on: poppy crops; assay: Example 9: field trial, mesosulfuron-methyl and metsulfuron-methyl, morphine crop; settings: for LODGING: assessed on the day of capsule harvest; for HEIGHT: measured at green capsule stage
Protocol: as §1, §2, §3
Trial to evaluate applications of mesosulfuron-methyl (Compound 2) and metsulfuron-methyl (Compound 1), in a morphine crop. Treatment sprays were applied to crop at ground cover, late run-up and early bud-emergence, respectively. Plant heights were measured at green capsule stage, and lodging assessed on the day of capsule harvest.

[5] = COMPOUND 2 390 MG/HA + ACTIVATOR .125 % V/V at GC and EBE
[6] = COMPOUND 2 390 MG/HA + ACTIVATOR .125 % V/V at GC, LRU and EBE

With `COC(=O)c1ccc(CNS(C)(=O)=O)cc1S(=O)(=O)NC(=O)Nc1nc(OC)cc(OC)n1` [Compound 2, mesosulfuron-methyl] the “CAPS/SEED RATIO” value [1] was 0.825 c, the “CROP WEIGHT” value [1] was 3.65 ab t/ha and the MORPHINE [1] was 43.77 ab kg/ha. For the same compound, the SEED [1] was 1671 b kg/ha, the STRAW [1] was 1976 ab kg/ha and the “STRAW MORPHINE” value [1] was 2.21 a %. For the same compound, the “PLANT HEIGHT” value ([1]; 5 weeks after last application) was 101.6 b cm, the “CAPS/SEED RATIO” value [2] was 2.315 days and the “CROP WEIGHT” value [2] was 2.57 b t/ha. For the same compound, the MORPHINE [2] was 41.97 b kg/ha, the SEED [2] was 612 b kg/ha and the STRAW [2] was 1910 b kg/ha. The “STRAW MORPHINE” value [2] was 2.23 b %, the “PLANT HEIGHT” value ([2]; 6 weeks after last application) was 104.0 b cm and the LODGING ([2]; at capsule harvest) was 2.8 b %. The “CAPS/SEED RATIO” value [3] was 1.071 b, the “CROP WEIGHT” value [3] was 3.25 a t/ha and the MORPHINE [3] was 42.83 b kg/ha. For the same compound, the SEED [3] was 1281 b kg/ha, the STRAW [3] was 1917 b kg/ha and the “STRAW MORPHINE” value [3] was 2.23 b %. The “PLANT HEIGHT” value ([3]; 5 weeks after last application) was 96.4 b cm, the LODGING ([3]; at capsule harvest) was 2.8 a % and the “CAPSULE/SEED RATIO” value [4, 5] was 2.084 b. For the same compound, the “CROP WEIGHT” value [4, 5] was 1.80 c t/ha, the MORPHINE [4, 5] was 26.41 b kg/ha and the SEED [4, 5] was 460 b kg/ha. The STRAW [4, 5] was 1342 c kg/ha, the “STRAW MORPHINE” value [4, 5] was 2.10 a % and the LODGING [4, 5] was 6.5 bc %. For the same compound, the HEIGHT [4, 5] was 96.0 ab cm, the “CAPSULE/SEED RATIO” value [4, 6] was 1.854 b and the “CROP WEIGHT” value [4, 6] was 1.16 d t/ha. The MORPHINE [4, 6] was 15.27 c kg/ha, the SEED [4, 6] was 336 b kg/ha and the STRAW [4, 6] was 827 d kg/ha. The “STRAW MORPHINE” value [4, 6] was 2.03 a %, the LODGING [4, 6] was 11.0 ab % and the HEIGHT [4, 6] was 89.3 b cm.

— patent publication US8557737B2, “Methods of altering poppy characteristics” (priority 2005, dated 2013)
